# Earlier results as cited in patent publication US7393692B2, “SERS method for rapid pharmacokinetic analysis of drugs in saliva” (Real-Time Analyzers, Inc., priority 2004, dated 2008).
# Assays:
# [1] = biological target: T1, dihydropyrimidine dehydrogenase (DPD) (Homo sapiens, UniProt Q12882); details: patient with the normal amount of DPD
# T1 construct: endogenous in cells; host or cells: human individuals / hypothetical cancer patients (in vivo metabolism)
# T1 sequence (Q12882 4-1025): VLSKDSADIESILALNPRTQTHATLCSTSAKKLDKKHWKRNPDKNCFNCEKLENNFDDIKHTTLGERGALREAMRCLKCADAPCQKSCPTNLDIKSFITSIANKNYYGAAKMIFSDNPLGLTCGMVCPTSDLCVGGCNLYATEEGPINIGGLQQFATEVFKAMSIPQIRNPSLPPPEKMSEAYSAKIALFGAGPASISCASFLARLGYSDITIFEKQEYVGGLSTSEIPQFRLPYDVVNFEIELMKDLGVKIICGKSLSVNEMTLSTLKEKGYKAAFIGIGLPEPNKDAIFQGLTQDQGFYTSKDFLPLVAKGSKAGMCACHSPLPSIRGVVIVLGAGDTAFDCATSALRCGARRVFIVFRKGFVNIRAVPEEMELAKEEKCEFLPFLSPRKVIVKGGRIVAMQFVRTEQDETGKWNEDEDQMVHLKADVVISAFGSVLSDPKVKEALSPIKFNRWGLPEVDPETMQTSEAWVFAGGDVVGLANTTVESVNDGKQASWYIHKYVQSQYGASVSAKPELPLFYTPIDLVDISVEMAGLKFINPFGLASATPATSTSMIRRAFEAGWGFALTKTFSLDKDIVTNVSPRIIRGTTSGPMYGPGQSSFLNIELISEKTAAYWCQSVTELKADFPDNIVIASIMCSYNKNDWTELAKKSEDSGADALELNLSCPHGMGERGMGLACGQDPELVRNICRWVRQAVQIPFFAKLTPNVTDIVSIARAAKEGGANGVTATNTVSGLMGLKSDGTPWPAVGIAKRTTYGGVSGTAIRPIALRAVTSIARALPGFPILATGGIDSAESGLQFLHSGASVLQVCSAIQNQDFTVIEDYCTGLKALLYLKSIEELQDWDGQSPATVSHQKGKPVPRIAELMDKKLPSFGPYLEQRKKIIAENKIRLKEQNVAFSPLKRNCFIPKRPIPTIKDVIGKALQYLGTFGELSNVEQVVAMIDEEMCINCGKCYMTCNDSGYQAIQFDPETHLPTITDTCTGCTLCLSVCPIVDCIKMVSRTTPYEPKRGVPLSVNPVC
# [2] = patient dependent
smiles,measurement,setting,value
"O=c1[nH]cc(F)c(=O)[nH]1 [5-FU, 5-fluorouracil]",5-FU metabolized to 5-FUH2 on average,[1],about 50%
same,"5-FU concentration in saliva, maximum",[2]; closely matches plasma,15 to 28 µg/mL
same,"5-FU concentration in saliva, three hour minimum",[2]; three hour minimum,0.1 µg/mL
